Data from publication PMC3933250 (Annals of Oncology, 2014).

Tests used:
R/M-SCCHN patients = conditions: ≤2000 mg cilengitide plus PFE, phase I part; cited from earlier work
[1] = Cilengitide pharmacokinetic profile in plasma during cycle 1; format: in vivo, human; conditions: PFE + CIL1W and PFE + CIL2W groups

For CC(C)[C@H]1C(=O)N[C@@H](CCCN=C(N)N)C(=O)NCC(=O)N[C@@H](CC(=O)O)C(=O)N[C@H](Cc2ccccc2)C(=O)N1C [cilengitide, Cilengitide], the “Dose-limiting or unexpected toxicities” value (R/M-SCCHN patients) is given as “no dose-limiting or unexpected toxicities” and the “Influence of the different cilengitide dosing on cetuximab exposure” value [1] is given as “no clinically relevant influence”.
